Results reported in patent publication EP0006987A1, “2,4-Diamino-5-benzylpyrimidines, especially for the treatment of microbial infections, pharmaceutical compositions containing these compounds and processes for preparing these compounds” (THE WELLCOME FOUNDATION LIMITED, priority 1978, dated 1980).
Where a name gives a salt, the structure may show the parent alone. Read-outs that look alike come from different tables or passages of the source. Marks after values point to notes of the source that are not given here.

Tests used:
[1] = Acute oral toxicity in rats; settings: rat, in vivo
[2] = Acute oral toxicity in mice; settings: mouse, in vivo
Neisseria gonorrhoeae = test: Antigonococcal activity, MIC by agar dilution, relative to trimethoprim; format: cell-based; settings: expressed as activity versus TMP activity, 17 strains; for Antigonococcal Activity v.N.gonorrhaeae W.S.T.A. / Antigonococcal Activity v.N.gonorrhaeae W.S.T.A. (Repeat Examination): Wellcotest Sensitivity Test Agar; for Antigonococcal Activity v.N.gonorrhaeae W.S.T.A.: Screening Examination, 24 hours incubation; for Antigonococcal Activity v.N.gonorrhaeae W.S.T.A. (Repeat Examination): standardised inocula, 48 hours incubation; for Antigonococcal Activity v.N.gonorrhaeae G.C.A.: Difco G.C. Agar
Experimental: (§1) The antigonococcal activity of 2,4-diamino-(3,5-diethyl-4-hydroxybenzyl)pyrimidine (compound 1), 2,4-diamino-(4-hydroxy-3,5-di-n-propylbenzyl)pyrimidine (compound 2), 2,4-diamino-(3-ethyl-4-hydroxy-5-n-propylbenzyl)pyrimidine (compound 3),24-diamino-(4-hydroxy-3,5-di-i-propylbenzyl)pyrimidine (compound 4) and 2,4-·diamino-·(3,5-di--t-butyl-4-hydroxybenzyl) pyrimidine (compound 5) and the antimeningococcal activity of compounds 2,3 and 4 were determined […] by the following methods. The activities were measured against 17 strains of Neisseria gonorrhoeae and 5 strains of Neisseria meningitidis in Wellcotest Sensitivity Test Agar supplemented with 5$ heated horse blood and 5% unheated lysed horse blood, In practice, 5% blood was added to 500ml quantities of the medium at 56°C and, after being placed in a 80°C water bath for 15 minutes and then cooled to 56°C, the lysed blood and the test compounds were added. The medium was then immediately poured into plates. The test compounds were dissolved as the isothionates.
(§2) In the Screening Examination, which consisted of 6 separate tests, the minimum inhibitory concentrations (MIC's) were determined in one-third interval dilutions and then reexamined in one-half interval dilution.
(§3) The inoculum in the Screening Examination was from an 18-hour Mueller-Hinton heated-blood broth culture, and applied with a lmm loop which was streaked along lcm.. Because the amount of growth produced by the strains varied, the inocula was not constant in these tests, in the Repeat Examination, the inocula were standardised to give "just confluent'' growth. The MIC's were read as that concentration which produced 90% or more inhibition of growth as compared macroscopically with that of the control growth. The incubation period for the Screening Examination was 24 hours and for the Repeat Examination 48 hours.
(§4) As standards, Escherichia coli (CN 314 ) and trimethoprim (TMP) were included in each test.
(§5) Using the above method the activities of compound 5 was measured against the same 17 strains of Neisseria gonorrhoeae and 5 strains of Neisseria meningitidis in Difco G.C. Agar.

[3] = Blood, urine and tissue concentrations in mice after oral administration (microbiological assay with Bacillus pumilus); format: in vivo; settings: 2mg/mouse P.O.; for Urine Direct (percentage in brackets): appears to be direct urine concentration as percent of that after Glusalase; for concentration at 1 h / concentration at 2 h / concentration at 4 h: po; for concentration at 1 h: 1 hour after dosing, read-out: Conc. in blood at 1HR; for concentration at 2 h: 2 hours after dosing, read-out: Conc. in blood at 2HR
Experimental: Also shown in Table 1 is the concentration of each of the compounds in the blood urine and tissues of mice after oral administration. These concent rations were determined as described hereafter. The compounds, suspended in 0.1% methylcellulose, were administered by stomach tube to groups of 3 mice, the dose was 2.0mg per 20g mouse and blood was collected from the orbital sinus at 1, 2 and 4 hours after the dosing. Urine was collected directly from each animal at the 4th hour, after which the animals were killed. Liver, lung, brain and muscle was taken from each animal and homogenised in an equal volume (w/v) of water in a Polytron Homogenizer. The suspensions were taken to be 1:2 extracts of the tissues.
The concentrations of the drugs were determined microbiologically, using Bacillus pumilus, those in the urine determined both before and after 18 hours incubation with Glusalase (gluecuronidase and sulfatase).

Neisseria meningitidis = test: Antimeningococcal activity, MIC by agar dilution, relative to trimethoprim; format: cell-based; settings: expressed as activity versus TMP activity; 5 strains
Experimental: as §1, §2, §3, §4, §5

[4] = test system: Escherichia coli (CN 314 ); test: Activity against standard organism E. coli, MIC by agar dilution, relative to trimethoprim; format: cell-based; settings: expressed as activity versus TMP activity
Experimental: The medium was then immediately poured into plates. The test compounds were dissolved as the isothionates. […] Because the amount of growth produced by the strains varied, the inocula was not constant in these tests, in the Repeat Examination, the inocula were standardised to give "just confluent'' growth. The MIC's were read as that concentration which produced 90% or more inhibition of growth as compared macroscopically with that of the control growth. The incubation period for the Screening Examination was 24 hours and for the Repeat Examination 48 hours. As standards, Escherichia coli (CN 314 ) and trimethoprim (TMP) were included in each test.

[5] = blood, 4 hours after dosing, read-out: Conc. in blood at 4HR
[6] = brain, 4 hours, tissue homogenate, read-out: Concentration at 4HRS in: Brain
[7] = liver, 4 hours, tissue homogenate, read-out: Concentration at 4HRS in: Liver
[8] = lung, 4 hours, tissue homogenate, read-out: Concentration at 4HRS in: Lung
[9] = muscle, 4 hours, tissue homogenate, read-out: Concentration at 4HRS in: Muscle
[10] = 4 hours, urine after 18 hours incubation with Glusalase (glucuronidase and sulfatase), read-out: Concentration at 4HRS in: Urine After glacolase
[11] = 4 hours, urine before incubation with Glusalase, read-out: Concentration at 4HRS in: Urine Direct

SMILES: CC(C)c1cc(Cc2cnc(N)nc2N)cc(C(C)C)c1O [2,4-diamino-5-(3,5-diisopropyl-4-hvdroxyberzyl) pyrimidine lactate salt]
- LD50 [1]: > 100 mg/kg
- LD50 ([2]; female mice, read-out: LD50 (mice) female): 2890 mg/kg
- LD50 ([2]; male mice, read-out: LD50 (mice) male): 2830 mg/kg

SMILES: CCc1cc(Cc2cnc(N)nc2N)cc(CC)c1O [COMPOUND 1, 2,4-diamino-(3,5-diethyl-4-hydroxybenzyl)pyrimidine]
- Antigonococcal Activity v.N.gonorrhaeae W.S.T.A. (Neisseria gonorrhoeae): 7
- Urine Direct (percentage in brackets) ([3]; 4 hours): 7%
- concentration at 1 h ([3]; blood): 1.11 µg/mL
- concentration at 2 h ([3]; blood): 0.41 µg/mL
- concentration at 4 h [3, 5]: 0.4 µg/mL
- concentration at 4 h [3, 6]: 0.34 µg/mL
- concentration at 4 h [3, 7]: 1.94 µg/mL
- concentration at 4 h [3, 8]: 1.75 µg/mL
- concentration at 4 h [3, 9]: < 0.03 µg/mL
- concentration at 4 h [3, 10]: 790 µg/mL
- concentration at 4 h [3, 11]: 56 µg/mL

SMILES: CCCc1cc(Cc2cnc(N)nc2N)cc(CCC)c1O [COMPOUND 2, 2,4-diamino-(4-hydroxy-3,5-di-n-propylbenzyl)pyrimidine]
- Antigonococcal Activity v.N.gonorrhaeae W.S.T.A. (Repeat Examination) (Neisseria gonorrhoeae): 17^**
- Antigonococcal Activity v.N.gonorrhaeae W.S.T.A. (Neisseria gonorrhoeae): 21
- Antigonococcal Activity v.N.meningitidis (Neisseria meningitidis): 11
- Antigonococcal Activity v.E.coli (CN314) [4]: 0.03
- Urine Direct (percentage in brackets) ([3]; 4 hours): 2.5%
- concentration at 1 h ([3]; blood): 1.36 µg/mL
- concentration at 2 h ([3]; blood): 0.5 µg/mL
- concentration at 4 h [3, 5]: 0.44 µg/mL
- concentration at 4 h [3, 6]: 0.5 µg/mL
- concentration at 4 h [3, 7]: 3.75 µg/mL
- concentration at 4 h [3, 8]: 1.8 µg/mL
- concentration at 4 h [3, 9]: < 0.03 µg/mL
- concentration at 4 h [3, 10]: 650 µg/mL
- concentration at 4 h [3, 11]: 16 µg/mL

SMILES: CCCc1cc(Cc2cnc(N)nc2N)cc(CC)c1O [COMPOUND 3, 2,4-diamino-(3-ethyl-4-hydroxy-5-n-propylbenzyl)pyrimidine]
- Antigonococcal Activity v.N.gonorrhaeae W.S.T.A. (Repeat Examination) (Neisseria gonorrhoeae): 18^**
- Antigonococcal Activity v.N.gonorrhaeae W.S.T.A. (Neisseria gonorrhoeae): 21
- Antigonococcal Activity v.N.meningitidis (Neisseria meningitidis): 7
- Antigonococcal Activity v.E.coli (CN314) [4]: >0.1
- Urine Direct (percentage in brackets) ([3]; 4 hours): 2.2%
- concentration at 1 h ([3]; blood): 0.88 µg/mL
- concentration at 2 h ([3]; blood): 0.9 µg/mL
- concentration at 4 h [3, 5]: 0.8 µg/mL
- concentration at 4 h [3, 6]: 0.44 µg/mL
- concentration at 4 h [3, 7]: 5 µg/mL
- concentration at 4 h [3, 8]: 3.6 µg/mL
- concentration at 4 h [3, 9]: 0.21 µg/mL
- concentration at 4 h [3, 10]: 1800 µg/mL
- concentration at 4 h [3, 11]: 39 µg/mL

SMILES: CC(C)c1cc(Cc2cnc(N)nc2N)cc(C(C)C)c1O [COMPOUND 4, 24-diamino-(4-hydroxy-3,5-di-i-propylbenzyl)pyrimidine]
- Antigonococcal Activity v.N.gonorrhaeae G.C.A. (Neisseria gonorrhoeae): 13
- Antigonococcal Activity v.N.gonorrhaeae W.S.T.A. (Repeat Examination) (Neisseria gonorrhoeae): 17^**
- Antigonococcal Activity v.N.gonorrhaeae W.S.T.A. (Neisseria gonorrhoeae): 18
- Antigonococcal Activity v.N.meningitidis (Neisseria meningitidis): 7
- Antigonococcal Activity v.E.coli (CN314) [4]: 0.03
- Urine Direct (percentage in brackets) ([3]; 4 hours): 50%
- concentration at 1 h ([3]; blood): 1.38 µg/mL
- concentration at 2 h ([3]; blood): 1.08 µg/mL
- concentration at 4 h [3, 5]: 0.65 µg/mL
- concentration at 4 h [3, 6]: 0.46 µg/mL
- concentration at 4 h [3, 7]: 8.3 µg/mL
- concentration at 4 h [3, 8]: 2.6 µg/mL
- concentration at 4 h [3, 9]: < 0.03 µg/mL
- concentration at 4 h [3, 10]: 190 µg/mL
- concentration at 4 h [3, 11]: 95 µg/mL

SMILES: CC(C)(C)c1cc(Cc2cnc(N)nc2N)cc(C(C)(C)C)c1O [COMPOUND 5, 2,4-·diamino-·(3,5-di--t-butyl-4-hydroxybenzyl) pyrimidine]
- Antigonococcal Activity v.N.gonorrhaeae G.C.A. (Neisseria gonorrhoeae): 7
- Urine Direct (percentage in brackets) ([3]; 4 hours): 42%
- concentration at 1 h ([3]; blood): 4.25 µg/mL
- concentration at 2 h ([3]; blood): 4 µg/mL
- concentration at 4 h [3, 5]: 3 µg/mL
- concentration at 4 h [3, 6]: 4.4 µg/mL
- concentration at 4 h [3, 7]: 6 µg/mL
- concentration at 4 h [3, 8]: 11.2 µg/mL
- concentration at 4 h [3, 9]: < 0.26 µg/mL
- concentration at 4 h [3, 10]: 240 µg/mL
- concentration at 4 h [3, 11]: 100 µg/mL

SMILES: COc1cc(Cc2cnc(N)nc2N)cc(OC)c1OC [TMP, 2,4-diamino-5-(3,4,5-trimethoxybenzyl)pyrimidine, reference compound]
- Antigonococcal Activity v.N.gonorrhaeae G.C.A. (Neisseria gonorrhoeae): 1
- Antigonococcal Activity v.N.gonorrhaeae W.S.T.A. (Repeat Examination) (Neisseria gonorrhoeae): 1
- Antigonococcal Activity v.N.gonorrhaeae W.S.T.A. (Neisseria gonorrhoeae): 1
- Antigonococcal Activity v.N.meningitidis (Neisseria meningitidis): 1
- Antigonococcal Activity v.E.coli (CN314) [4]: 1
- Urine Direct (percentage in brackets) ([3]; 4 hours): 50%
- concentration at 1 h ([3]; blood): 2.15 µg/mL
- concentration at 2 h ([3]; blood): 0.28 µg/mL
- concentration at 4 h [3, 5]: < 0.02 µg/mL
- concentration at 4 h [3, 6]: < 0.04 µg/mL
- concentration at 4 h [3, 7]: 1.08 µg/mL
- concentration at 4 h [3, 9]: < 0.04 µg/mL
- concentration at 4 h [3, 10]: 400 µg/mL
- concentration at 4 h [3, 11]: 200 µg/mL
